Calls of active or inactive are those of the source. The rule behind the calls is not given here.
Experiments:
Helicobacter pylori [1] = experiment: (§1) Antibacterial activity against Helicobacter pylori SS1 infected in Mongolian gerbils assessed as bacterial disorientation in luminal mucus layer at 0.25 mg, ip administered as two doses of solvent measured after 90 mins post last dose (reference value: 4560+/-400 bacteria per nl of mucus); assay type: functional, organism-based
Helicobacter pylori [2] = experiment: as §1, with “15 to 25 um above the Juxtamucosal” for “luminal mucus”; assay type: functional, organism-based
Helicobacter pylori [3] = experiment: Antibacterial activity against Helicobacter pylori SS1 infected in Mongolian gerbils assessed as bacterial density in mucus in 15 to 25 um above the Juxtamucosal layer at 0.25 mg, ip administered as two doses in 8 hrs dosing interval measured after 90 mins post last dose (reference value: 2280+/-430 bacteria per nl of mucus); assay type: functional
Helicobacter pylori [4] = experiment: Antibacterial activity against Helicobacter pylori SS1 infected in Mongolian gerbils assessed as bacterial density in mucus in 0 to 15 um above the Juxtamucosal layer at 100 uM, ip administered as single dose through dialysis measured after 90 mins post last dose; assay type: functional
Helicobacter pylori [5] = experiment: Antibacterial activity against Helicobacter pylori SS1 infected in Mongolian gerbils assessed as bacterial disorientation in 15 to 25 um above the Juxtamucosal layer at 0.25 mg, ip administered as two doses in 8 hrs dosing interval measured after 90 mins post last dose; assay type: functional, organism-based
Helicobacter pylori [6] = experiment: (§2) Antibacterial activity against Helicobacter pylori SS1 infected in Mongolian gerbils assessed as bacterial density in mucus in central mucus layer at 20 uM, ip administered as single dose through dialysis measured after 90 mins post last dose (reference value: 90+/-60 bacteria per nl of mucus); assay type: functional
Helicobacter pylori [7] = experiment: Antibacterial activity against Helicobacter pylori SS1 infected in Mongolian gerbils assessed as bacterial disorientation in central layer at 0.25 mg, ip administered as two doses of solvent measured after 90 mins post last dose (reference value: 4560+/-400 bacteria per nl of mucus); assay type: functional, organism-based
Helicobacter pylori [8] = experiment: Antibacterial activity against Helicobacter pylori SS1 infected in Mongolian gerbils assessed as decrease in bacterial density in mucus in 15 to 25 um above the Juxtamucosal layer at 0.25 mg, ip administered as single dose for 5 days measured after 90 mins post last dose; assay type: functional; set-up: scale not given: the % may be the effect or the level left
Helicobacter pylori [9] = experiment: (§3) Antibacterial activity against Helicobacter pylori SS1 infected in Mongolian gerbils assessed as bacterial density in mucus in luminal mucus layer at 0.25 mg, ip followed by second dose administered as solvent in 24 hrs dosing interval measured after 90 mins post last dose (reference value: 60+/-50 bacteria per nl of mucus); assay type: functional
Helicobacter pylori [10] = experiment: Antibacterial activity against Helicobacter pylori SS1 infected in Mongolian gerbils assessed as bacterial disorientation in central mucus layer at 0.25 mg, ip administered as two doses in 24 hrs dosing interval measured after 90 mins post last dose; assay type: functional, organism-based
Helicobacter pylori [11] = experiment: as §3, with “central” for “luminal”, “ip” for “ip followed by second dose”, “two doses” for “solvent”, “90+/-60” for “60+/-50”; assay type: functional
Helicobacter pylori [12] = experiment: Antibacterial activity against Helicobacter pylori SS1 infected in Mongolian gerbils assessed as bacterial disorientation in 0 to 15 um above the Juxtamucosal layer at 0.25 mg, ip followed by second dose administered as solvent in 24 hrs dosing interval measured after 90 mins post last dose; assay type: functional, organism-based
Helicobacter pylori [13] = experiment: Antibacterial activity against Helicobacter pylori SS1 infected in Mongolian gerbils assessed as bacterial density in mucus in luminal mucus layer at 0.25 mg, ip administered as two doses of solvent in 24 hrs dosing interval measured after 90 mins post last dose (reference value: 60+/-50 bacteria per nl of mucus); assay type: functional
Helicobacter pylori [14] = experiment: Antibacterial activity against Helicobacter pylori SS1 infected in Mongolian gerbils assessed as bacterial disorientation in luminal mucus layer at 20 uM, ip administered as single dose through dialysis measured after 90 mins post last dose; assay type: functional, organism-based
Helicobacter pylori [15] = experiment: Antibacterial activity against Helicobacter pylori SS1 infected in Mongolian gerbils assessed as bacterial disorientation in 0 to 15 um above the Juxtamucosal layer at 0.25 mg, ip administered as two doses in 24 hrs dosing interval measured after 90 mins post last dose; assay type: functional, organism-based
Helicobacter pylori [16] = experiment: Antibacterial activity against Helicobacter pylori SS1 infected in Mongolian gerbils assessed as bacterial density in mucus in 15 to 25 um above the Juxtamucosal layer at 100 uM, ip administered as single dose through dialysis measured after 90 mins post last dose; assay type: functional
Helicobacter pylori [17] = experiment: (§4) Antibacterial activity against Helicobacter pylori SS1 infected in Mongolian gerbils assessed as bacterial density in mucus in 0 to 15 um above the Juxtamucosal layer at 0.25 mg, ip administered as two doses of solvent in 24 hrs dosing interval measured after 90 mins post last dose (reference value: 4560+/-400 bacteria per nl of mucus); assay type: functional
Helicobacter pylori [18] = experiment: Antibacterial activity against Helicobacter pylori SS1 infected in Mongolian gerbils assessed as bacterial disorientation in 15 to 25 um above the Juxtamucosal layer at 0.25 mg, ip followed by second dose administered as solvent in 24 hrs dosing interval measured after 90 mins post last dose; assay type: functional, organism-based
Helicobacter pylori [19] = experiment: Antibacterial activity against Helicobacter pylori SS1 infected in Mongolian gerbils assessed as bacterial disorientation in 0 to 15 um above the Juxtamucosal layer at 20 uM, ip administered as single dose through dialysis measured after 90 mins post last dose; assay type: functional, organism-based
Helicobacter pylori [20] = experiment: Antibacterial activity against Helicobacter pylori SS1 infected in Mongolian gerbils assessed as bacterial disorientation in 15 to 25 um above the Juxtamucosal layer at 0.25 mg, ip administered as two doses in 24 hrs dosing interval measured after 90 mins post last dose; assay type: functional, organism-based
Helicobacter pylori [21] = experiment: Antibacterial activity against Helicobacter pylori SS1 infected in Mongolian gerbils assessed as bacterial density in mucus in luminal mucus layer at 20 uM, ip administered as single dose through dialysis measured after 90 mins post last dose (reference value: 60+/-50 bacteria per nl of mucus); assay type: functional
Helicobacter pylori [22] = experiment: as §4, with “ip followed by second dose” for “ip”, “as” for “as two doses of”; assay type: functional
Helicobacter pylori [23] = experiment: Antibacterial activity against Helicobacter pylori SS1 infected in Mongolian gerbils assessed as bacterial disorientation in luminal mucus layer at 0.25 mg, ip followed by second dose administered as solvent in 24 hrs dosing interval measured after 90 mins post last dose; assay type: functional, organism-based
Helicobacter pylori [24] = experiment: Antibacterial activity against Helicobacter pylori SS1 infected in Mongolian gerbils assessed as bacterial density in mucus in luminal mucus layer at 100 uM, ip administered as single dose through dialysis measured after 90 mins post last dose; assay type: functional
[25] = Cmax in Mongolian gerbils plasma at 0.5 mg, ip; assay type: ADME, organism-based, Meriones unguiculatus; set-up: dose 0.5 mg, route intraperitoneal; settings: gerbil
Helicobacter pylori [26] = experiment: Antibacterial activity against Helicobacter pylori SS1 infected in Mongolian gerbils assessed as bacterial disorientation in central mucus layer at 0.25 mg, ip administered as two doses in 8 hrs dosing interval measured after 90 mins post last dose; assay type: functional, organism-based
Helicobacter pylori [27] = experiment: as §4, with “doses” for “doses of solvent”, “8” for “24”; assay type: functional
Helicobacter pylori [28] = experiment: as §2, with “15 to 25 um above the Juxtamucosal” for “central mucus”, “2280+/-430” for “90+/-60”; assay type: functional

- Cmax [25]: 20 µM
SMILES: COc1ccc2[nH]c([S+]([O-])Cc3ncc(C)c(OC)c3C)nc2c1 (stereo not drawn) [OMEPRAZOLE]
- Activity (Helicobacter pylori [1]): inactive
- Activity (Helicobacter pylori [2]): inactive
- Activity (Helicobacter pylori [3]): 1800 nL⁻¹
- Activity (Helicobacter pylori [4]): 570 nL⁻¹
- Activity (Helicobacter pylori [5]): inactive
- Activity (Helicobacter pylori [6]): 70 nL⁻¹
- Activity (Helicobacter pylori [7]): inactive
- Activity (Helicobacter pylori [8]): 5%
- Activity (Helicobacter pylori [9]): 50 nL⁻¹
- Activity (Helicobacter pylori [10]): inactive
- Activity (Helicobacter pylori [11]): 300 nL⁻¹
- Activity (Helicobacter pylori [12]): Active
- Activity (Helicobacter pylori [13]): 70 nL⁻¹
- Activity (Helicobacter pylori [14]): inactive
- Activity (Helicobacter pylori [15]): Active
- Activity (Helicobacter pylori [16]): 330 nL⁻¹
- Activity (Helicobacter pylori [17]): 5740 nL⁻¹
- Activity (Helicobacter pylori [18]): inactive
- Activity (Helicobacter pylori [19]): Active
- Activity (Helicobacter pylori [20]): Active
- Activity (Helicobacter pylori [21]): 50 nL⁻¹
- Activity (Helicobacter pylori [22]): 4790 nL⁻¹
- Activity (Helicobacter pylori [23]): inactive
- Activity (Helicobacter pylori [24]): 60 nL⁻¹
- Activity (Helicobacter pylori [26]): inactive
- Activity (Helicobacter pylori [27]): 4170 nL⁻¹
- Activity (Helicobacter pylori [28]): 2010 nL⁻¹
